Positions of bridges follow the written chain, without caps; N, C: chain ends. Non-standard residues stand in square brackets, D forms with d. Residues, ends and D or L forms follow the SMILES beside them. NMeW = CN[C@@H](Cc1c[nH]c2ccccc12)C(=O)O; NMeY = CN[C@@H](Cc1ccc(O)cc1)C(=O)O; Tic = O=C(O)[C@@H]1Cc2ccccc2CN1; Cit = NC(=O)NCCC[C@H](N)C(=O)O; Ahp(2) = CCCCC[C@H](N)C(=O)O; NMeNle = CCCC[C@H](NC)C(=O)O; Tle = CC(C)(C)[C@H](N)C(=O)O; NMeV = CN[C@H](C(=O)O)C(C)C; NMeS = CN[C@@H](CO)C(=O)O; NHexGly = CCCCCCNCC(=O)O; Nle = CCCC[C@H](N)C(=O)O; Orn = NCCC[C@H](N)C(=O)O
Molecular target: T1, mouse VISTA (mVISTA) (Mus musculus, UniProt Q9D659)
T1 construct: expressed in transfected cells; host or cells: Human embryonic kidney 293T cells
T1 sequence (Q9D659 33-308): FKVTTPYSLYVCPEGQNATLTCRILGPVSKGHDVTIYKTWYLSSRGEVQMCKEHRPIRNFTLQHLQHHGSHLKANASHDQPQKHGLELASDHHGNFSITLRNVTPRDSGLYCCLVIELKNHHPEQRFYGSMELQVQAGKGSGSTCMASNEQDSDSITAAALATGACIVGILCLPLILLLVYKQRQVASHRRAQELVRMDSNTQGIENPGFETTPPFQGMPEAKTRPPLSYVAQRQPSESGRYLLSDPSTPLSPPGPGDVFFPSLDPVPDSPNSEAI
Test: Cell-Based Binding High-Content Assay For mVISTA (HC CBA mVISTA)
Conditions: read-out: HC CBA mVISTA IC50
How it was run: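 293T cells expressing mouse VISTA, with compounds added either after seeding ("no wash") or before seeding and then washed out after 1 h. Biotinylated peptide 2 nM for 30 min at room temperature, then detection with Alexa 647–streptavidin. After fixation with Hoechst stain, plates were high-content imaged; IC50 from four-parameter logistic fit.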

SMILES | IC50
CCCCCCN1CC(=O)N[C@@H](Cc2ccc(O)cc2)C(=O)N[C@@H](CCCC)C(=O)N[C@@H](CC(=O)O)C(=O)N[C@@H](CCCNC(=N)N)C(=O)N(C)[C@@H](CCCC)C(=O)N[C@@H](CCCCC)C(=O)N2CCC[C@H]2C(=O)N[C@@H](C(C)(C)C)C(=O)N[C@@H](CC(=O)O)C(=O)N[C@H](C(=O)N[C@@H](CC(N)=O)C(=O)O)CSCC(=O)N[C@@H](Cc2ccccc2)C(=O)N[C@@H](Cc2c[nH]c3ccccc23)C(=O)N[C@@H](CC(=O)O)C1=O [Example 1403] ({CH2CO}-FWD[NHexGly]Y[Nle]DR[NMeNle][Ahp(2)]P[Tle]DCN-OH; thioether N-14) | 0.032 µM
CCCCCCN1CC(=O)N[C@@H](Cc2ccc(O)cc2)C(=O)N[C@@H](CCCC)C(=O)N[C@@H](CC(=O)O)C(=O)N[C@@H](CCCNC(=N)N)C(=O)N(C)[C@@H](CCCC)C(=O)N[C@@H](CCCCC)C(=O)N2CCC[C@H]2C(=O)N[C@@H](C(C)C)C(=O)N[C@@H](CC(=O)O)C(=O)N[C@H](C(=O)N[C@@H](CO)C(N)=O)CSCC(=O)N[C@@H](Cc2ccccc2)C(=O)N[C@@H](Cc2c[nH]c3ccccc23)C(=O)N[C@@H](CC(=O)O)C1=O [Example 1407] ({CH2CO}-FWD[NHexGly]Y[Nle]DR[NMeNle][Ahp(2)]PVDCS-NH2; thioether N-14) | 0.0345 µM
CCCCCCN1CC(=O)N[C@@H](Cc2ccc(O)cc2)C(=O)N[C@@H](CCCC)C(=O)N[C@@H](CC(N)=O)C(=O)N[C@@H](CCCNC(=N)N)C(=O)N(C)[C@@H](CO)C(=O)N[C@@H](CCCCC)C(=O)N2CCC[C@H]2C(=O)N[C@@H](C(C)C)C(=O)N[C@@H](CC(=O)O)C(=O)N[C@H](C(=O)NCC(=O)O)CSCC(=O)N[C@@H](Cc2ccccc2)C(=O)N[C@@H](Cc2c[nH]c3ccccc23)C(=O)N[C@@H](CC(=O)O)C1=O [Example 1408] ({CH2CO}-FWD[NHexGly]Y[Nle]NR[NMeS][Ahp(2)]PVDCG-OH; thioether N-14) | 0.0208 µM
CCCCCCN1CC(=O)N[C@@H](Cc2ccc(O)cc2)C(=O)N[C@@H](CCCC)C(=O)N[C@@H](CC(N)=O)C(=O)N[C@@H](CCCNC(N)=O)C(=O)N2Cc3ccccc3C[C@H]2C(=O)N[C@@H](CCCCC)C(=O)N2CCC[C@H]2C(=O)N[C@@H](C(C)C)C(=O)N[C@@H](CO)C(=O)N[C@H](C(=O)NCC(N)=O)CSCC(=O)N[C@@H](Cc2ccccc2)C(=O)N[C@@H](Cc2c[nH]c3ccccc23)C(=O)N[C@@H](CC(=O)O)C1=O [Example 1413] ({CH2CO}-FWD[NHexGly]Y[Nle]N[Cit][Tic][Ahp(2)]PVSCG-NH2; thioether N-14) | 0.0189 µM
CCCCCCN1CC(=O)N[C@@H](Cc2ccc(O)cc2)C(=O)N[C@@H](CC(C)C)C(=O)NCC(=O)N[C@@H](CCCNC(=N)N)C(=O)N[C@@H](Cc2ccc(O)cc2)C(=O)N[C@@H](CCCCC)C(=O)N2CCC[C@H]2C(=O)N[C@@H](C(C)C)C(=O)N[C@@H](CC(=O)O)C(=O)N[C@H](C(=O)NCC(N)=O)CSCC(=O)N[C@@H](Cc2ccccc2)C(=O)N[C@@H](Cc2c[nH]c3ccccc23)C(=O)N[C@@H](CC(=O)O)C1=O [Example 1416] ({CH2CO}-FWD[NHexGly]YLGRY[Ahp(2)]PVDCG-NH2; thioether N-14) | 0.0517 µM
CCCCCCN1CC(=O)N[C@@H](Cc2ccc(O)cc2)C(=O)N[C@@H](CC(C)C)C(=O)NCC(=O)N[C@@H](CCCNC(=N)N)C(=O)N[C@@H](Cc2ccc(O)cc2)C(=O)N[C@@H](CCCCC)C(=O)N2CCC[C@H]2C(=O)N[C@@H](C(C)C)C(=O)N[C@@H](CC(=O)O)C(=O)N[C@H](C(=O)NCC(=O)O)CSCC(=O)N[C@@H](Cc2ccccc2)C(=O)N[C@@H](Cc2c[nH]c3ccccc23)C(=O)N[C@@H](CC(=O)O)C1=O [Example 1417] ({CH2CO}-FWD[NHexGly]YLGRY[Ahp(2)]PVDCG-OH; thioether N-14) | 0.0249 µM

The remaining compounds from weak to strong by IC50, led by results:

IC50 | SMILES
0.0186 µM | CCCCCCN1CC(=O)N[C@@H](Cc2ccc(O)cc2)C(=O)N[C@@H](CCCC)C(=O)N[C@@H](CC(N)=O)C(=O)N[C@@H](CCCNC(=N)N)C(=O)N(C)[C@@H](Cc2ccc(O)cc2)C(=O)N[C@@H](CCCCC)C(=O)N2CCC[C@H]2C(=O)N[C@@H](C(C)C)C(=O)N[C@@H](CC(=O)O)C(=O)N[C@H](C(=O)NCC(=O)O)CSCC(=O)N[C@@H](Cc2ccccc2)C(=O)N[C@@H](Cc2c[nH]c3ccccc23)C(=O)N[C@@H](CC(=O)O)C1=O [Example 1411] ({CH2CO}-FWD[NHexGly]Y[Nle]NR[NMeY][Ahp(2)]PVDCG-OH; thioether N-14)
0.0181 µM | CCCCCCN1CC(=O)N[C@@H](Cc2ccc(O)cc2)C(=O)N[C@@H](CCCC)C(=O)N[C@@H](CC(N)=O)C(=O)N[C@@H](CCCNC(=N)N)C(=O)N2Cc3ccccc3C[C@H]2C(=O)N[C@@H](CCCCC)C(=O)N2CCC[C@H]2C(=O)N[C@@H](C(C)C)C(=O)N[C@@H](CO)C(=O)N[C@H](C(=O)NCC(N)=O)CSCC(=O)N[C@@H](Cc2ccccc2)C(=O)N[C@@H](Cc2c[nH]c3ccccc23)C(=O)N[C@@H](CC(=O)O)C1=O [Example 1415] ({CH2CO}-FWD[NHexGly]Y[Nle]NR[Tic][Ahp(2)]PVSCG-NH2; thioether N-14)
0.016 µM | CCCCCCN1CC(=O)N[C@@H](Cc2ccc(O)cc2)C(=O)N[C@@H](CCCC)C(=O)N[C@@H](CC(N)=O)C(=O)N[C@@H](CCCN)C(=O)N(C)[C@@H](CCCC)C(=O)N[C@@H](CCCCC)C(=O)N2CCC[C@H]2C(=O)N[C@@H](C(C)(C)C)C(=O)N[C@@H](CC(=O)O)C(=O)N[C@H](C(=O)N[C@@H](CC(N)=O)C(=O)O)CSCC(=O)N[C@@H](Cc2ccccc2)C(=O)N[C@@H](Cc2c[nH]c3ccccc23)C(=O)N[C@@H](CC(=O)O)C1=O [Example 1404] ({CH2CO}-FWD[NHexGly]Y[Nle]N[Orn][NMeNle][Ahp(2)]P[Tle]DCN-OH; thioether N-14)
0.0131 µM | CCCCCCN1CC(=O)N[C@@H](Cc2ccc(O)cc2)C(=O)N[C@@H](CCCC)C(=O)N[C@@H](CC(N)=O)C(=O)N[C@@H](CCCNC(N)=O)C(=O)N2Cc3ccccc3C[C@H]2C(=O)N[C@@H](CCCCC)C(=O)N2CCC[C@H]2C(=O)N[C@@H](C(C)C)C(=O)N[C@@H](CC(=O)O)C(=O)N[C@H](C(=O)NCC(N)=O)CSCC(=O)N[C@@H](Cc2ccccc2)C(=O)N[C@@H](Cc2c[nH]c3ccccc23)C(=O)N[C@@H](CC(=O)O)C1=O [Example 1412] ({CH2CO}-FWD[NHexGly]Y[Nle]N[Cit][Tic][Ahp(2)]PVDCG-NH2; thioether N-14)
0.0127 µM | CCCCCCN1CC(=O)N[C@@H](Cc2ccc(O)cc2)C(=O)N[C@@H](CCCC)C(=O)N[C@@H](CC(N)=O)C(=O)N[C@@H](CCCNC(=N)N)C(=O)N(C)[C@@H](C(C)C)C(=O)N[C@@H](CCCCC)C(=O)N2CCC[C@H]2C(=O)N[C@@H](C(C)C)C(=O)N[C@@H](CC(=O)O)C(=O)N[C@H](C(=O)NCC(=O)O)CSCC(=O)N[C@@H](Cc2ccccc2)C(=O)N[C@@H](Cc2c[nH]c3ccccc23)C(=O)N[C@@H](CC(=O)O)C1=O [Example 1409] ({CH2CO}-FWD[NHexGly]Y[Nle]NR[NMeV][Ahp(2)]PVDCG-OH; thioether N-14)
0.0123 µM | CCCCCCN1CC(=O)N[C@@H](Cc2ccc(O)cc2)C(=O)N[C@@H](CCCC)C(=O)N[C@@H](CC(N)=O)C(=O)N[C@@H](CCCNC(=N)N)C(=O)N2Cc3ccccc3C[C@H]2C(=O)N[C@@H](CCCCC)C(=O)N2CCC[C@H]2C(=O)N[C@@H](C(C)C)C(=O)N[C@@H](CC(=O)O)C(=O)N[C@H](C(=O)NCC(N)=O)CSCC(=O)N[C@@H](Cc2ccccc2)C(=O)N[C@@H](Cc2c[nH]c3ccccc23)C(=O)N[C@@H](CC(=O)O)C1=O [Example 1414] ({CH2CO}-FWD[NHexGly]Y[Nle]NR[Tic][Ahp(2)]PVDCG-NH2; thioether N-14)
0.0064 µM | CCCCCCN1CC(=O)N[C@@H](Cc2ccc(O)cc2)C(=O)N[C@@H](CCCC)C(=O)N[C@@H](CC(N)=O)C(=O)N[C@@H](CCCNC(=N)N)C(=O)N(C)[C@@H](CCCC)C(=O)N[C@@H](CCCCC)C(=O)N2CCC[C@H]2C(=O)N[C@@H](C(C)C)C(=O)N[C@@H](CC(=O)O)C(=O)N[C@H](C(=O)N[C@@H](CO)C(=O)O)CSCC(=O)N[C@@H](Cc2ccccc2)C(=O)N[C@@H](Cc2c[nH]c3ccccc23)C(=O)N[C@@H](CC(=O)O)C1=O [Example 1406] ({CH2CO}-FWD[NHexGly]Y[Nle]NR[NMeNle][Ahp(2)]PVDCS-OH; thioether N-14)
0.0053 µM | CCCCCCN1CC(=O)N[C@@H](Cc2ccc(O)cc2)C(=O)N[C@@H](CCCC)C(=O)N[C@@H](CC(N)=O)C(=O)N[C@@H](CCCNC(=N)N)C(=O)N(C)[C@@H](Cc2c[nH]c3ccccc23)C(=O)N[C@@H](CCCCC)C(=O)N2CCC[C@H]2C(=O)N[C@@H](C(C)C)C(=O)N[C@@H](CC(=O)O)C(=O)N[C@H](C(=O)NCC(=O)O)CSCC(=O)N[C@@H](Cc2ccccc2)C(=O)N[C@@H](Cc2c[nH]c3ccccc23)C(=O)N[C@@H](CC(=O)O)C1=O [Example 1410] ({CH2CO}-FWD[NHexGly]Y[Nle]NR[NMeW][Ahp(2)]PVDCG-OH; thioether N-14)
0.005 µM | CCCCCCN1CC(=O)N[C@@H](Cc2ccc(O)cc2)C(=O)N[C@@H](CCCCC)C(=O)N[C@@H](CC(N)=O)C(=O)N[C@@H](CCCNC(=N)N)C(=O)N(C)[C@@H](CCCC)C(=O)N[C@@H](CCCCC)C(=O)N2CCC[C@H]2C(=O)N[C@@H](C(C)C)C(=O)N[C@@H](CC(=O)O)C(=O)N[C@H](C(=O)N[C@@H](CO)C(N)=O)CSCC(=O)N[C@@H](Cc2ccccc2)C(=O)N[C@@H](Cc2c[nH]c3ccccc23)C(=O)N[C@@H](CC(=O)O)C1=O [Example 1405] ({CH2CO}-FWD[NHexGly]Y[Ahp(2)]NR[NMeNle][Ahp(2)]PVDCS-NH2; thioether N-14)
